Experimental data: the supplement of paper PMC4862054

How the values were obtained:
DU-4475 [1] = test: normalised viability (% of control), CellTiter-Blue; higher = more viable cells (about 100 = DMSO control); settings: incubation time: 72 h
Protocol: (§1)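 DSRT, CellTiter-Blue viability, 72 h incubation. Signal is normalised to DMSO and benzethonium chloride controls. Value is the normalised response at dose 9.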

CAL-85-1 [2] = test: as above; settings: incubation time: 72 h
Protocol: as §1

MDA-MB-453 [3] = test: as above; settings: incubation time: 72 h
Protocol: as §1

CAL-51 [4] = test: as above; settings: incubation time: 72 h
Protocol: as §1

CAL-148 [5] = test: as above; settings: incubation time: 72 h
Protocol: as §1

HCC1599 [6] = test: drug sensitivity score (DSS), CellTiter-Blue viability (DSS (AUC-based score)); higher = stronger viability inhibition; extreme values may be limits of the assay; settings: incubation time: 72 h
Protocol: (§2)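 DSRT with the CellTiter-Blue (resazurin reduction) viability readout, fluorescence 560/590 nm, 72 h incubation. Plates were normalised to DMSO and benzethonium chloride controls. DSS is computed from the area under the fitted dose-response curve (5 or 9 concentrations).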

CAL-120 [7] = test: as above; settings: incubation time: 72 h
Protocol: as §2

MDA-MB-436 [8] = test: as above; settings: incubation time: 72 h
Protocol: as §2

Hs578T [9] = test: as above; settings: incubation time: 72 h
Protocol: as §2

DU-4475 [10] = test: normalised viability (% of control), CellTiter-Blue; higher = more viable cells (about 100 = DMSO control); settings: incubation time: 72 h; remark: listed apart in the source
Outline: (§3)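 Normalised viability is given for a single listed concentration of the series. In 384-well plates, breast cancer cell lines were incubated 72 h with compound, then read with CellTiter-Blue (2 h, 37 °C) at 560/590 nm. Per-plate scaling set vehicle to 100 and a positive kill control to 0, with Z'-factor quality control.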

HCC1937 = test: as above; settings: incubation time: 72 h
Outline: as §3

MDA-MB-468 = test: as above; settings: incubation time: 72 h
Outline: as §3

HCC1599 [11] = test: as above; settings: incubation time: 72 h
Outline: as §3

CAL-85-1 [12] = test: as above; settings: incubation time: 72 h; remark: listed apart in the source
Outline: as §3

MDA-MB-453 [13] = test: as above; settings: incubation time: 72 h; remark: listed apart in the source
Outline: as §3

MDA-MB-231 = test: as above; settings: incubation time: 72 h
Outline: as §3

BT-474 = test: as above; settings: incubation time: 72 h
Outline: as §3

CAL-120 [14] = test: as above; settings: incubation time: 72 h
Outline: as §3

HCC1143 = test: as above; settings: incubation time: 72 h
Outline: as §3

BT-549 = test: as above; settings: incubation time: 72 h
Outline: as §3

SK-BR-3 = test: as above; settings: incubation time: 72 h
Outline: as §3

MDA-MB-436 [15] = test: as above; settings: incubation time: 72 h
Outline: as §3

Hs578T [16] = test: as above; settings: incubation time: 72 h
Outline: as §3

CAL-51 [17] = test: as above; settings: incubation time: 72 h; remark: listed apart in the source
Outline: as §3

CAL-148 [18] = test: as above; settings: incubation time: 72 h; remark: listed apart in the source
Outline: as §3

MFM-223 = test: as above; settings: incubation time: 72 h
Outline: as §3

HDQ-P1 = test: as above; settings: incubation time: 72 h
Outline: as §3

MDA-MB-453 [19] = settings: 72 h
Outline: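 Breast cancer cell lines in 20 µl suspension were seeded onto 384-well plates pre-loaded with compound dissolved in 5 µl medium, then incubated 72 h. For viability, 2.5 µl CellTiter-Blue was added for 2 h at 37 °C and fluorescence read at 560/590 nm. Each plate was normalised to vehicle and a positive kill control and checked by Z'-factor. EC50 comes from the fitted percent-inhibition dose-response curve, censored at the highest concentration; rows with zero drug sensitivity score were dropped.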

C[C@]12CC[C@H](O)CC1=CC[C@@H]1[C@@H]2CC[C@]2(C)C(c3cccnc3)=CC[C@@H]12 [Abiraterone]
normalised viability (DU-4475 [1]; 5000 nM): 93.3%
normalised viability (CAL-85-1 [2]; 5000 nM): 82.1%
normalised viability (MDA-MB-453 [3]; 5000 nM): 89.2%
normalised viability (CAL-51 [4]; 5000 nM): 92%
normalised viability (CAL-148 [5]; 5000 nM): 92.1%
drug sensitivity score (HCC1599 [6]): 0
drug sensitivity score (CAL-120 [7]): 0
drug sensitivity score (MDA-MB-436 [8]): 0
drug sensitivity score (Hs578T [9]): 0
normalised viability (DU-4475 [10]; 50 nM): 90.2%
normalised viability (HCC1937; 5000 nM): 101%
normalised viability (MDA-MB-468; 5000 nM): 111%
normalised viability (HCC1599 [11]; 5000 nM): 120%
normalised viability (CAL-85-1 [12]; 50 nM): 96.4%
normalised viability (MDA-MB-453 [13]; 50 nM): 102%
normalised viability (MDA-MB-231; 5000 nM): 131%
normalised viability (BT-474; 5000 nM): 98.8%
normalised viability (CAL-120 [14]; 5000 nM): 92.1%
normalised viability (HCC1143; 5000 nM): 83%
normalised viability (BT-549; 5000 nM): 119%
normalised viability (SK-BR-3; 5000 nM): 93.5%
normalised viability (MDA-MB-436 [15]; 5000 nM): 107%
normalised viability (Hs578T [16]; 5000 nM): 110%
normalised viability (CAL-51 [17]; 50 nM): 104%
normalised viability (CAL-148 [18]; 50 nM): 90.7%
normalised viability (MFM-223; 5000 nM): 87.8%
normalised viability (HDQ-P1; 50 nM): 110%

CNNCc1ccc(C(=O)NC(C)C)cc1 [Procarbazine]
normalised viability (DU-4475 [1]; 10000 nM): 85%
normalised viability (CAL-85-1 [2]; 10000 nM): 85.1%
normalised viability (MDA-MB-453 [3]; 10000 nM): 110%
normalised viability (CAL-51 [4]; 10000 nM): 102%
normalised viability (CAL-148 [5]; 10000 nM): 97%
drug sensitivity score (HCC1599 [6]): 0
drug sensitivity score (CAL-120 [7]): 0
drug sensitivity score (MDA-MB-436 [8]): 0.866
drug sensitivity score (Hs578T [9]): 0
normalised viability (DU-4475 [10]; 100 nM): 91.3%
normalised viability (HCC1937; 10000 nM): 81.7%
normalised viability (MDA-MB-468; 10000 nM): 112%
normalised viability (HCC1599 [11]; 10000 nM): 90%
normalised viability (CAL-85-1 [12]; 100 nM): 89.2%
normalised viability (MDA-MB-453 [13]; 100 nM): 109%
normalised viability (MDA-MB-231; 10000 nM): 109%
normalised viability (BT-474; 10000 nM): 113%
normalised viability (CAL-120 [14]; 10000 nM): 88.2%
normalised viability (HCC1143; 10000 nM): 93.6%
normalised viability (BT-549; 10000 nM): 89.5%
normalised viability (SK-BR-3; 10000 nM): 106%
normalised viability (MDA-MB-436 [15]; 10000 nM): 81.5%
normalised viability (Hs578T [16]; 10000 nM): 114%
normalised viability (CAL-51 [17]; 100 nM): 96.4%
normalised viability (CAL-148 [18]; 100 nM): 99%
normalised viability (MFM-223; 10000 nM): 97.8%
normalised viability (HDQ-P1; 100 nM): 109%

O=C1NC(=O)[C@@H](c2cn3c4c(cccc24)CCC3)[C@@H]1c1c[nH]c2ccccc12 [Tivantinib]
EC50, CellTiter-Blue viability (MDA-MB-453 [19]): 169 nM
normalised viability (DU-4475 [1]; 1000 nM): 36.9%
normalised viability (CAL-85-1 [2]; 1000 nM): 33.9%
normalised viability (MDA-MB-453 [3]; 1000 nM): 31%
normalised viability (CAL-51 [4]; 1000 nM): 21.1%
normalised viability (CAL-148 [5]; 1000 nM): 30.5%
drug sensitivity score (HCC1599 [6]): 0.607
drug sensitivity score (CAL-120 [7]): 4.4
drug sensitivity score (MDA-MB-436 [8]): 7.87
drug sensitivity score (Hs578T [9]): 2.65
normalised viability (DU-4475 [10]; 10 nM): 82.9%
normalised viability (HCC1937; 1000 nM): 30.4%
normalised viability (MDA-MB-468; 1000 nM): 42.4%
normalised viability (HCC1599 [11]; 1000 nM): 79%
normalised viability (CAL-85-1 [12]; 10 nM): 104%
normalised viability (MDA-MB-453 [13]; 10 nM): 107%
normalised viability (MDA-MB-231; 1000 nM): 29.8%
normalised viability (BT-474; 1000 nM): 45.4%
normalised viability (CAL-120 [14]; 1000 nM): 29.7%
normalised viability (HCC1143; 1000 nM): 55.2%
normalised viability (BT-549; 1000 nM): 26.8%
normalised viability (SK-BR-3; 1000 nM): 21.5%
normalised viability (MDA-MB-436 [15]; 1000 nM): 52.3%
normalised viability (Hs578T [16]; 1000 nM): 19.9%
normalised viability (CAL-51 [17]; 10 nM): 108%
normalised viability (CAL-148 [18]; 10 nM): 97.9%
normalised viability (MFM-223; 1000 nM): 57.8%
normalised viability (HDQ-P1; 10 nM): 100%
